In patent US8969394B2, “Thiophenecarboxamide derivatives as EP4 receptor ligands” (Merck Frosst Canada Ltd., priority 2006, dated 2015):

target: EP4 receptor (Homo sapiens (Human), UniProt P35408); assay: Prostanoid receptor binding assay, hEP4 (membranes of transfected HEK 293(ebna) cells); conditions: radioligand binding, HEK 293(ebna) membranes, 10 mM MES/KOH pH 6.0
Procedure: Prostanoid receptor cDNAs corresponding to full length coding sequences are subcloned into the appropriate sites of mammalian expression vectors and transfected into HEK 293(ebna) cells. HEK 293(ebna) cells expressing the individual cDNAs are grown under selection and individual colonies are isolated after 2-3 weeks of growth using the cloning ring method and subsequently expanded into clonal cell lines.
Transfected HEK 293(ebna) cells are maintained in culture, harvested and membranes are prepared by differential centrifugation, following lysis of the cells in the presence of protease inhibitors, for use in receptor binding assays. Prostanoid receptor binding assays (for DP1, DP2 (CRTH2), EP1, EP2, EP3-III, EP4, FP, IP, and TP) are performed in 10 mM MES/KOH (pH 6.0) (EPs, FP and TP) or 10 mM HEPES/KOH (pH 7.4) (DPs and IP), containing 1 mM EDTA, 2.5-30 mM divalent cation and the appropriate radioligand. Synthetic compounds are added in dimethylsulfoxide which is kept constant at 1% (v/v) in all incubations. The reaction is initiated by addition of membrane protein. Non-specific binding is determined in the presence of 10 μM of the corresponding non-radioactive prostanoid. Incubations are conducted for 60-90 min at room temperature or 30° C. and terminated by rapid filtration. Specific binding is calculated by subtracting non specific binding from total binding. The residual specific binding at each ligand concentration is calculated and expressed as a function of ligand concentration in order to construct sigmoidal concentration-response curves. The binding affinity of the compounds is determined by calculating the equilibrium inhibition constant (Ki) from the equation Ki=InPt/1+[radioligand]/Kd where Kd is the equilibrium dissociation constant for the radioligand:receptor interaction and InPt is the inflection point of the dose-response curves.

Chain of EP4 receptor (P35408 whole entry): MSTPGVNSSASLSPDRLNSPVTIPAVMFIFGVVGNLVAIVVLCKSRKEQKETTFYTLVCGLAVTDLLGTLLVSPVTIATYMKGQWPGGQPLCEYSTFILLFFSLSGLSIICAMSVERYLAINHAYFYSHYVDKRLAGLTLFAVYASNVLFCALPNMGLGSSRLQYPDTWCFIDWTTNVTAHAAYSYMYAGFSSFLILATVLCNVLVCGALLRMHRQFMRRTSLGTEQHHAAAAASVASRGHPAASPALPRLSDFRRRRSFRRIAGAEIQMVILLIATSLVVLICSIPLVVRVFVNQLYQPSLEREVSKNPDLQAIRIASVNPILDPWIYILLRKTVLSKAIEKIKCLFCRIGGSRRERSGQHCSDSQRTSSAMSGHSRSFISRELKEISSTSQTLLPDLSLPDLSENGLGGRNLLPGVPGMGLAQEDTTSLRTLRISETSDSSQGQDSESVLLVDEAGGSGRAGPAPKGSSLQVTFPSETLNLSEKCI

Ki [nM] | Structure (SMILES)
0.47 ± 0.01 | C[C@H](NC(=O)c1c(Br)sc(Br)c1Cc1cccc(Cl)c1)c1ccc(C(=O)O)cc1 [Example 5, 4-[(1S)-1-({[2,5-dibromo-4-(3-chlorobenzyl)-3-thienyl]carbonyl}amino)ethyl]benzoic acid]
0.8 ± 0.2 | Cc1sc(C)c(C(=O)NC2(c3ccc(C(=O)O)cc3)CC2)c1Cc1cccc(C(F)(F)F)c1 [Example 28, 4-{1-[({2,5-dimethyl-4-[3-(trifluoromethyl)benzyl]-3-thienyl}carbonyl)-amino]cyclopropyl}benzoic acid]
1.3 ± 0.6 | C[C@H](NC(=O)c1c(Cl)sc(Cl)c1Cc1cccc(Cl)c1)c1ccc(C(=O)O)cc1 [Example 7, 4-[(1S)-1-({[2,5-dichloro-4-(3-chlorobenzyl)-3-thienyl]carbonyl}amino)ethyl]benzoic acid]
30 | Cc1sc(C)c(C(=O)NCc2ccc(C(=O)O)c(Cl)c2)c1Cc1cccc(Cl)c1 [Example 25, 2-chloro-4-[({[4-(3-chlorobenzyl)-2,5-dimethyl-3-thienyl]carbonyl}amino)-methyl]benzoic acid]
5.2 ± 1.1 | CC(NC(=O)c1sc(Cl)cc1Cc1cccc(Cl)c1)c1ccc(C(=O)O)cc1 (stereo not drawn) [Example 1, 4-[1-({[5-chloro-3-(3-chlorobenzyl)-2-thienyl]carbonyl}amino)ethyl]-benzoic acid]
0.8 ± 0.2 | C[C@H](NC(=O)c1c(Cl)sc(Cl)c1Cc1cccc(C(F)(F)F)c1)c1ccc(C(=O)O)cc1 [Example 21, 4-{(1S)-1-[({2,5-dichloro-4-[3-(trifluoromethyl)benzyl]-3-thienyl}carbonyl)-amino]ethyl}benzoic acid]
0.71 ± 0.01 | C[C@H](NC(=O)c1csc(Br)c1Cc1cccc(Cl)c1)c1ccc(C(=O)O)cc1 [Example 4, 4-[(1S)-1-({[5-bromo-4-(3-chlorobenzyl)-3-thienyl]carbonyl}amino)ethyl]benzoic acid]
3.4 ± 0.2 | Cc1sc(C)c(C(=O)N[C@@H](C)c2ccc(C(=O)O)cc2)c1Cc1ccc(Cl)cc1 [Example 30, 4-[(1S)-1-({[4-(4-chlorobenzyl)-2,5-dimethyl-3-thienyl]carbonyl}amino)-ethyl]benzoic acid]
7.4 ± 1.3 | C[C@H](NC(=O)c1c(Cl)sc(Cl)c1C(=O)c1cccc(Cl)c1)c1ccc(C(=O)O)cc1 [Example 10, 4-[(1S)-1-({[2,5-dichloro-4-(3-chlorobenzoyl)-3-thienyl]carbonyl}amino)ethyl]benzoic acid]
124 | COC(=O)c1ccc([C@H](C)NC(=O)c2c(Cl)sc(Cl)c2Cc2cccc(Cl)c2)cc1 [Example 6, methyl 4-[(1S)-1-({[2,5-dichloro-4-(3-chlorobenzyl)-3-thienyl]carbonyl}amino)ethyl]benzoate]
0.9 ± 0.1 | O=C(O)c1ccc(CNC(=O)c2c(Cl)sc(Cl)c2Cc2cccc(Cl)c2)cc1 [Example 22, 4-[({[2,5-dichloro-4-(3-chlorobenzyl)-3-thienyl]carbonyl}amino)-methyl]benzoic acid]
7.9 ± 0.6 | C[C@H](NC(=O)c1cscc1Cc1cccc(Cl)c1)c1ccc(C(=O)O)cc1 [Example 3, 4-[(1S)-1-({[4-(3-chlorobenzyl)-3-thienyl]carbonyl}amino)ethyl]benzoic acid]
0.5 ± 0.1 | Cc1sc(C)c(C(=O)NC2(c3ccc(C(=O)O)cc3)CC2)c1Cc1ccc(C(F)(F)F)cc1 [Example 16, 4-{1-[({2,5-dimethyl-4-[4-(trifluoromethyl)benzyl]-3-thienyl}carbonyl)amino]cyclopropyl}benzoic acid]
133 | Cc1sc(C)c(C(=O)N[C@@H](C)c2ccc(C(=O)NS(=O)(=O)c3ccccc3)cc2)c1Cc1ccc(C(F)(F)F)cc1 [Example 19, 2,5-dimethyl-N-[(1S)-1-(4-{[(phenylsulfonyl)amino]carbonyl}phenyl)ethyl]-4-[4-(trifluoromethyl)benzyl]thiophene-3-carboxamide]
51 | C[C@H](NC(=O)c1c(Cl)sc(Cl)c1C(OC1CCCCO1)c1cccc(Cl)c1)c1ccc(C(=O)O)cc1 (stereo partly drawn) [Example 8]
0.9 ± 0.2 | C[C@@H](NC(=O)c1c(Cl)sc(Cl)c1Cc1cccc(Cl)c1)c1ccc(C(=O)O)cc1 [Example 20, 4-[(1R)-1-({[2,5-dichloro-4-(3-chlorobenzyl)-3-thienyl]carbonyl}amino)-ethyl]benzoic acid]
2.4 ± 0.2 | Cc1sc(C)c(C(=O)N[C@@H](C)c2ccc(C(=O)O)cc2)c1Cc1cccc(C(F)(F)F)c1 [Example 24, 4-{(1S)-1-[({2,5-dimethyl-4-[3-(trifluoromethyl)benzyl]-3-thienyl}carbonyl)-amino]ethyl}benzoic acid]
0.7 ± 0.2 | Cc1sc(C)c(C(=O)NC2(c3ccc(-c4nn[nH]n4)cc3)CC2)c1Cc1cccc(C(F)(F)F)c1 [Example 26, 2,5-dimethyl-N-{1-[4-(2H-tetrazol-5-yl)phenyl]cyclopropyl}-4-[3-(trifluoromethyl)benzyl]thiophene-3-carboxamide]
3.1 ± 0.4 | Cc1sc(C)c(C(=O)N[C@@H](C)c2ccc(C(=O)O)cc2)c1Cc1cccc(Cl)c1 [Example 23, 4-[(1S)-1-({[4-(3-chlorobenzyl)-2,5-dimethyl-3-thienyl]carbonyl}amino)-ethyl]benzoic acid]
1.4 ± 0.4 | Cc1sc(C)c(C(=O)N[C@@H](C)c2ccc(C(=O)O)cc2)c1Cc1ccc(C(F)(F)F)cc1 [Example 12, 4-{(1S)-1-[({2,5-dimethyl-4-[4-(trifluoromethyl)benzyl]-3-thienyl}carbonyl)amino]ethyl}benzoic acid]
2.6 ± 0.6 | CC(NC(=O)c1sc(Cl)cc1Cc1cccc(Cl)c1)c1ccc(-c2nn[nH]n2)cc1 (stereo not drawn) [Example 2, 5-chloro-3-(3-chlorobenzyl)-N-{1-[4-(1H-tetrazol-5-yl)phenyl]ethyl}-thiophene-2-carboxamide]
1.8 | C[C@H](NC(=O)c1c(Cl)sc(Cl)c1C(O)c1cccc(Cl)c1)c1ccc(C(=O)O)cc1 (stereo partly drawn) [Example 9, 4-{(1S)-1-[({2,5-dichloro-4-[(3-chlorophenyl)(hydroxy)methyl]-3-thienyl}carbonyl)amino]ethyl}benzoic acid]
0.6 ± 0.1 | Cc1sc(C)c(C(=O)NC2(c3ccc(-c4nn[nH]n4)cc3)CC2)c1Cc1ccc(C(F)(F)F)cc1 [Example 14, 2,5-dimethyl-N-{1-[4-(2H-tetrazol-5-yl)phenyl]cyclopropyl}-4-[4-(trifluoromethyl)benzyl]thiophene-3-carboxamide]
308 | Cc1sc(C)c(C(=O)N[C@@H](C)c2ccc(C(=O)NS(C)(=O)=O)cc2)c1Cc1ccc(C(F)(F)F)cc1 [Example 18, 2,5-dimethyl-N-[(1S)-1-(4-{[(methylsulfonyl)amino]carbonyl}phenyl)ethyl]-4-[4-(trifluoromethyl)benzyl]thiophene-3-carboxamide]
